Data from patent US20150105252A1, “SUBSTITUTED PYRAZOLES AS HERBICIDES” (E I DU PONT DE NEMOURS AND COMPANY, priority 2013, published 2015).

What was measured:
foxtail, giant [1] = test: Test C preemergence; type: in vivo, Setaria faberii; details: for Plant response rating (scale of 0 to 100), Foxtail, Giant: Preemergence, 250 g ai/ha; for Foxtail, Giant plant response rating: preemergence
Outline: (§1)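 Greenhouse pot test: preemergence application onto freshly seeded loam/sand mix, postemergence application onto seedlings (1–4 leaves, 2–18 cm) in peat-vermiculite substrate. Responses scored visually 13 to 15 days later relative to controls, where 0 means no effect and 100 means complete control; a dash indicates no result.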

velvetleaf = test: Test C postemergence; type: in vivo, Abutilon theophrasti; details: for Plant response rating (scale of 0 to 100 where 0 is no effect and 100 is complete control), Velvetleaf: Postemergence, 31 g ai/ha, visually evaluated after 13 to 15 days; for Velvetleaf plant response rating / Plant response rating, Velvetleaf: postemergence; for Velvetleaf plant response rating: 62 g ai/ha, scale 0 to 100
Outline: as §1

johnsongrass = test: Test C preemergence; type: in vivo, Sorghum halepense; details: for Plant response rating (scale of 0 to 100), Johnsongrass: Preemergence, 250 g ai/ha; for Johnsongrass plant response rating: preemergence
Outline: as §1

rice = test: Test B flood; type: in vivo, Oryza sativa; details: 250 g ai/ha, visual rating on 0 to 100 scale (0 no effect, 100 complete control), 13 to 15 days
Outline: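 Plants were grown to the 2-leaf stage and pots flooded to 3 cm above soil. Compounds were applied directly into the paddy water, with depth kept for the test. After 13–15 days in greenhouse, response was rated visually against controls on a 0 (no effect) to 100 (complete control) scale.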

blackgrass = test: Test C postemergence; type: in vivo, Alopecurus myosuroides; details: for Plant response rating (scale of 0 to 100 where 0 is no effect and 100 is complete control), Blackgrass: Postemergence, 31 g ai/ha, visually evaluated after 13 to 15 days; for Blackgrass plant response rating / Plant response rating, Blackgrass: postemergence; for Blackgrass plant response rating: 62 g ai/ha, scale 0 to 100
Outline: as §1

barnyardgrass = test: Test C postemergence; type: in vivo, Echinochloa crus-galli; details: for Plant response rating (scale of 0 to 100 where 0 is no effect and 100 is complete control), Barnyardgrass: Postemergence, 31 g ai/ha, visually evaluated after 13 to 15 days; for Barnyardgrass plant response rating / Plant response rating, Barnyardgrass: postemergence; for Barnyardgrass plant response rating: 62 g ai/ha, scale 0 to 100
Outline: as §1

nutsedge, yellow = test: Test C postemergence; type: in vivo, Cyperus esculentus; details: for Plant response rating (scale of 0 to 100 where 0 is no effect and 100 is complete control), Nutsedge, Yellow: Postemergence, 31 g ai/ha, visually evaluated after 13 to 15 days; for Nutsedge, Yellow plant response rating / Plant response rating, Nutsedge, Yellow: postemergence; for Nutsedge, Yellow plant response rating: 62 g ai/ha, scale 0 to 100
Outline: as §1

foxtail, giant [2] = test: Test A preemergence; type: in vivo, Setaria faberii; details: preemergence
Outline: (§2)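 Growth medium: loam soil blended with sand. Preemergence treatment used a directed soil spray right after planting; postemergence treatment targeted seedlings at one to two leaves (2–10 cm height). Response was judged by eye relative to untreated plants about 10 days later on a 0–100 control scale.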

wheat [3] = test: Test A preemergence; type: in vivo, Triticum aestivum; details: preemergence
Outline: as §2

pigweed = test: Test A preemergence; type: in vivo, Amaranthus retroflexus; details: preemergence
Outline: as §2

lambsquarters = test: Test C preemergence; type: in vivo, Chenopodium album; details: for Plant response rating (scale of 0 to 100), Lambsquarters: Preemergence, 250 g ai/ha; for Lambsquarters plant response rating: preemergence
Outline: as §1

wheat [4] = test: Test A postemergence; type: in vivo, Triticum aestivum
Outline: as §2

crabgrass, large = test: Test C postemergence; type: in vivo, Digitaria sanguinalis; details: for Plant response rating (scale of 0 to 100 where 0 is no effect and 100 is complete control), Crabgrass, Large: Postemergence, 31 g ai/ha, visually evaluated after 13 to 15 days; for Crabgrass, Large plant response rating / Plant response rating, Crabgrass, Large: postemergence; for Crabgrass, Large plant response rating: 62 g ai/ha, scale 0 to 100
Outline: as §1

[5] = 31 g ai/ha, visual rating, scale 0 to 100 (0 no effect, 100 complete control), 13 to 15 days
[6] = 62 g ai/ha, scale 0 to 100 (0 no effect, 100 complete control), 13 to 15 days
[7] = 125 g ai/ha, scale 0 to 100, 0 is no effect, 100 is complete control
[8] = 250 g ai/ha, scale 0 to 100 (0 no effect, 100 complete control)
[9] = 125 g ai/ha, scale 0 to 100, 0 no effect, 100 complete control
[10] = 125 g ai/ha, visual injury, 0 to 100 scale, approx. 10 days
[11] = 500 g ai/ha, visual injury after approx. 10 days, 0 to 100 scale (0 no effect, 100 complete control)
[12] = Postemergence, 500 g ai/ha, visual rating after approx. 10 days, 0 to 100 scale (0 no effect, 100 complete control)
[13] = postemergence, 125 g ai/ha, about 10 days, visual rating on 0 to 100 scale (0 no effect, 100 complete control)

CCc1cc(C(=O)NCC(F)(F)F)nn1Cc1nc(C(F)(F)F)nn1C [Compound 107]
Plant response rating (scale of 0 to 100), Foxtail, Giant (foxtail, giant [1]): 100 | Foxtail, Giant plant response rating (foxtail, giant [1]; [5]): 100 | Foxtail, Giant plant response rating (foxtail, giant [1]; [6]): 100 | Foxtail, Giant plant response rating (foxtail, giant [1]; [7]): 100 | Plant response rating (scale of 0 to 100 where 0 is no effect and 100 is complete control), Velvetleaf (velvetleaf): 30 | Velvetleaf plant response rating (velvetleaf): 30 | Plant response rating, Velvetleaf (velvetleaf; [8]): 50 | Plant response rating, Velvetleaf (velvetleaf; [9]): 35 | Plant response rating (scale of 0 to 100), Johnsongrass (johnsongrass): 100 | Johnsongrass plant response rating (johnsongrass; [5]): 30 | Johnsongrass plant response rating (johnsongrass; [6]): 65 | Johnsongrass plant response rating (johnsongrass; [7]): 90 | Plant response rating, Rice (rice): 30 | Plant response rating (scale of 0 to 100 where 0 is no effect and 100 is complete control), Blackgrass (blackgrass): 10 | Blackgrass plant response rating (blackgrass): 10 | Plant response rating, Blackgrass (blackgrass; [8]): 35 | Plant response rating, Blackgrass (blackgrass; [9]): 15 | Plant response rating (scale of 0 to 100 where 0 is no effect and 100 is complete control), Barnyardgrass (barnyardgrass): 0 | Barnyardgrass plant response rating (barnyardgrass): 0 | Plant response rating, Barnyardgrass (barnyardgrass; [8]): 30 | Plant response rating, Barnyardgrass (barnyardgrass; [9]): 5 | Plant response rating (scale of 0 to 100 where 0 is no effect and 100 is complete control), Nutsedge, Yellow (nutsedge, yellow): 0 | Nutsedge, Yellow plant response rating (nutsedge, yellow): 0 | Plant response rating, Nutsedge, Yellow (nutsedge, yellow; [8]): 40 | Plant response rating, Nutsedge, Yellow (nutsedge, yellow; [9]): 5 | Foxtail, Giant plant response rating (foxtail, giant [2]; [10]): 100 | Foxtail, Giant plant response rating (foxtail, giant [2]; [11]): 100 | Wheat plant response rating (wheat [3]; [10]): 10 | Wheat plant response rating (wheat [3]; [11]): 90 | Pigweed plant response rating (pigweed; [10]): 100 | Pigweed plant response rating (pigweed; [11]): 100 | Plant response rating (scale of 0 to 100), Lambsquarters (lambsquarters): 100 | Lambsquarters plant response rating (lambsquarters; [5]): 100 | Lambsquarters plant response rating (lambsquarters; [6]): 100 | Lambsquarters plant response rating (lambsquarters; [7]): 100 | Wheat plant response rating (wheat [4]; [12]): 80 | Wheat plant response rating (wheat [4]; [13]): 30 | Plant response rating (scale of 0 to 100 where 0 is no effect and 100 is complete control), Crabgrass, Large (crabgrass, large): 5 | Crabgrass, Large plant response rating (crabgrass, large): 30 | Plant response rating, Crabgrass, Large (crabgrass, large; [8]): 85 | Plant response rating, Crabgrass, Large (crabgrass, large; [9]): 45

CCc1cc(C(=O)NCC(F)(F)F)nn1Cc1cc(C(F)(F)F)nn1C [Compound 108, 5-ethyl-1-[[1-methyl-3-(trifluoromethyl)-1H-pyrazole-5-yl]methyl]-N-(2,2,2-trifluoroethyl)-1H-pyrazole-3-carboxamide]
Plant response rating (scale of 0 to 100), Foxtail, Giant (foxtail, giant [1]): 100 | Foxtail, Giant plant response rating (foxtail, giant [1]; [5]): 100 | Foxtail, Giant plant response rating (foxtail, giant [1]; [6]): 100 | Foxtail, Giant plant response rating (foxtail, giant [1]; [7]): 100 | Plant response rating (scale of 0 to 100 where 0 is no effect and 100 is complete control), Velvetleaf (velvetleaf): 5 | Velvetleaf plant response rating (velvetleaf): 10 | Plant response rating, Velvetleaf (velvetleaf; [8]): 40 | Plant response rating, Velvetleaf (velvetleaf; [9]): 35 | Plant response rating (scale of 0 to 100), Johnsongrass (johnsongrass): 100 | Johnsongrass plant response rating (johnsongrass; [5]): 35 | Johnsongrass plant response rating (johnsongrass; [6]): 90 | Johnsongrass plant response rating (johnsongrass; [7]): 100 | Plant response rating, Rice (rice): 15 | Plant response rating (scale of 0 to 100 where 0 is no effect and 100 is complete control), Blackgrass (blackgrass): 0 | Blackgrass plant response rating (blackgrass): 5 | Plant response rating, Blackgrass (blackgrass; [8]): 30 | Plant response rating, Blackgrass (blackgrass; [9]): 5 | Plant response rating (scale of 0 to 100 where 0 is no effect and 100 is complete control), Barnyardgrass (barnyardgrass): 0 | Barnyardgrass plant response rating (barnyardgrass): 0 | Plant response rating, Barnyardgrass (barnyardgrass; [8]): 35 | Plant response rating, Barnyardgrass (barnyardgrass; [9]): 5 | Plant response rating (scale of 0 to 100 where 0 is no effect and 100 is complete control), Nutsedge, Yellow (nutsedge, yellow): 0 | Nutsedge, Yellow plant response rating (nutsedge, yellow): 0 | Plant response rating, Nutsedge, Yellow (nutsedge, yellow; [8]): 25 | Plant response rating, Nutsedge, Yellow (nutsedge, yellow; [9]): 0 | Foxtail, Giant plant response rating (foxtail, giant [2]; [10]): 100 | Foxtail, Giant plant response rating (foxtail, giant [2]; [11]): 100 | Wheat plant response rating (wheat [3]; [10]): 10 | Wheat plant response rating (wheat [3]; [11]): 100 | Pigweed plant response rating (pigweed; [10]): 100 | Pigweed plant response rating (pigweed; [11]): 100 | Plant response rating (scale of 0 to 100), Lambsquarters (lambsquarters): 100 | Lambsquarters plant response rating (lambsquarters; [5]): 100 | Lambsquarters plant response rating (lambsquarters; [6]): 100 | Lambsquarters plant response rating (lambsquarters; [7]): 100 | Wheat plant response rating (wheat [4]; [12]): 90 | Wheat plant response rating (wheat [4]; [13]): 40 | Plant response rating (scale of 0 to 100 where 0 is no effect and 100 is complete control), Crabgrass, Large (crabgrass, large): 5 | Crabgrass, Large plant response rating (crabgrass, large): 10 | Plant response rating, Crabgrass, Large (crabgrass, large; [8]): 50 | Plant response rating, Crabgrass, Large (crabgrass, large; [9]): 10
